Where two headings read alike, the source gives them in different places.
Assays:
contorsions [1] = assay: SIEGMUND phenylbenzoquinone contorsion test; type: in vivo, male mice; conditions: Mus musculus
Method: The third test was carried out according to the technique of SIEGMUND and al (Proc. Soc. Exp. Biol. Med. 95, 729, 1957) on batches of 10 male mice.
A typical syndrome was produced in the animals by intraperitoneal injection of 0.25 ml. of a 0.02% aqueous solution of 2-phenyl-1,4-benzoquinone (phenylbenzoquinone).
The syndrome in question is characterized by intermittent contractions of the abdomen, twisting and turning of the trunk and extension of the hind legs. Note was taken of the number of movements occurring over a period of 30 minutes starting 15 minutes after the injection of phenylbenzoquinone.
The compound to be tested was injected 30 minutes before the phenylbenzoquinone in such a way that each batch received a higher dose than the preceding batch, a control batch receiving only the phenylbenzoquinone.
Note was taken of the AD50, i.e. the dose of substance which reduced at least by half the number of contorsions in half of the animals, as compared to the number of contorsions observed in the control group.

contorsions [2] = assay: KOSTER acetic acid contorsion test, intragastric; type: in vivo, mice; conditions: Mus musculus, po
Method: The first test was carried out according to the technique of KOSTER (Fed. Proc. 18, 412, 1959) on batches of 20 mice which had been deprived of food for 18 hours.
Each batch of animals with the exception of the controls was given an intragastric dose of the compound to be studied so that each batch received a higher dose than the preceding batch. Thirty minutes after administration, the animals of each batch, as well as the control animals, were given intraperitoneally 0.2 ml. of a 0.25% acetic acid solution per 10 g. of body-weight.
During the 20 minutes following the injection of acetic acid, the number of characteristic contorsions made by the animals was noted. The absence of contorsions corresponds to animals under the influence of analgesia.
Note was taken of the AD50, i.e. the dose of the compound under study which provoked analgesia in half of the animals treated.

[3] = test system: squeak at threshold-voltage (pain); assay: NILSEN electric tail stimulation test, intragastric; type: in vivo, mice; conditions: Mus musculus, po
Method: The second test was carried out according to the technique of NILSEN (Acta Pharmacol. et toxicol. 18, 10, 1961) on batches of 10 mice.
The animals were connected to a source of electric current by means of two electrodes inserted into the tail.
The threshold-voltage was then determined, i.e. the minimum voltage which, in the course of two successive shocks, caused the animals to squeak at least one time out of two. After this, the compound to be studied was administered by intragastric route.
Note was taken of the dose of compound (AD50) which suppressed the squeak in half of the treated animals.

pain-threshold voltage = assay: CHARLIER electric stimulation pain-threshold test, intragastric; type: in vivo, rats; conditions: Rattus norvegicus, po
Method: The fourth test was carried out according to the technique of CHARLIER and al (Arch. int. Pharmacodyn. 134, 306, 1961) on batches of 10 rats.
The animals were connected to a source of electric current by means of two electrodes of which one was attached to the tail and the other maintained in the rectum.
The pain-threshold voltage was then determined for each rat by passing a current of 2 volts and increasing the current by one volt at a time until the animal gave a squeak. This control test was repeated three times at intervals of 15 minutes. The compound under study was then administered by intragastric route and, starting from the threshold-voltage already determined note was taken, every 10 minutes for 2 hours, of the voltage which caused the animals to squeak.
The results were noted according to the WINTER and FLATAKER scale (J. Pharmacol. Exp. Therap. 98, 305, 1950) and the AD's 50 obtained are listed in the Table given hereunder: […]

[4] = test system: squeak at threshold-voltage (pain); assay: animal or person; type: in vivo, mice; conditions: Mus musculus, sc, read-out: AD50
[5] = test system: reaction time (flick-tail); assay: animal or person; type: in vivo, male rats; conditions: Rattus norvegicus, sc, read-out: AD50
contorsions [6] = assay: animal or person; type: in vivo, mice; conditions: Mus musculus, sc, read-out: AD50

| SMILES | ED50 (contorsions [1]; read-out: AD50) | ED50 (contorsions [2]; read-out: AD50) | ED50 ([3]; read-out: AD50) | ED50 (pain-threshold voltage; 2 h, read-out: AD50) | ED50 [4] | ED50 [5] | ED50 (contorsions [6]) | further results |
| --- | --- | --- | --- | --- | --- | --- | --- | --- |
| CC(=O)Oc1ccccc1C(=O)O [Acetylsalicyclic acid, Acetylsalicylic acid] | 50 mg/kg | 150 mg/kg | 1100 mg/kg | 1300 mg/kg |  |  |  |  |
| O=C(OCC(O)CO)c1ccccc1Nc1ccnc2cc(Cl)ccc12 (stereo not shown) [Glafenine] | 325 mg/kg | 110 mg/kg |  |  |  |  |  |  |
| CCOc1ccc(NC(C)=O)cc1 [Phenacetine] | 80 mg/kg | 160 mg/kg | 450 mg/kg | 750 mg/kg |  |  |  |  |
| Cc1cc(=O)n(-c2ccccc2)n1C [Antipyrine] |  |  |  |  |  |  |  | ED50 (contorsions [1]; injected 30 minutes before phenylbenzoquinone, male mice, contorsions reduced at least by half in half of the animals, read-out: AD50 (the source's name)): 100 mg/kg; ED50 (contorsions [2]; intragastric, mice, 30 min before 0.25% acetic acid i.p., analgesia in half of the animals, read-out: AD50 (the source's name)): 120 mg/kg; ED50 ([3]; intragastric, mice, suppressed the squeak in half of the treated animals, read-out: AD50 (the source's name)): 400 mg/kg; ED50 (pain-threshold voltage; intragastric, rats, WINTER and FLATAKER scale, 2 hours, read-out: AD50 (the source's name)): 500 mg/kg |
| CCOC(=O)C1(c2ccccc2)CCN(C)CC1 [Pethidine] |  |  |  | 50 mg/kg | 7 mg/kg | 5.5 mg/kg | 7 mg/kg |  |
| CC(C)=CCN1CCC2(C)c3cc(O)ccc3CC1C2C (stereo not shown) [Pentazocine] |  | 45 mg/kg |  |  | 12 mg/kg | 3 mg/kg | 5 mg/kg |  |
